The values that follow come from ChEMBL document CHEMBL3044738, “Synthesis of analogues of antihyperglycemic lead karanjin” (2011).

The structures appear in SMILES notation.

Test [1] deals with Rattus norvegicus. The experiment in a line: Antihyperglycemic activity in albino Rattus norvegicus Sprague-Dawley (rat) streptozotocin-induced diabetic model assessed as effect on AUC of blood glucose level at 100 mg/kg, po after 24 hr. Type of test: functional.
In test [2] the test system is Rattus norvegicus. The test can be described thus: Antihyperglycemic activity in albino Rattus norvegicus Sprague-Dawley (rat) streptozotocin-induced diabetic model assessed as effect on AUC of blood glucose level at 100 mg/kg, po after 5 hr. The format is functional.

Consider `CN(C)C(=N)NC(=N)N` [METFORMIN], for which the Activity in the test with Rattus norvegicus [1] is recorded as 25%; with Rattus norvegicus [2], -26.7%.
The like results for `CCN(CC)CC(O)COc1c(-c2ccccc2)oc2c(ccc3occc32)c1=O` (stereo not given) [3-(3-DIETHYLAMINO-2-HYDROXY-PROPYL)-KARANJONOL] were, in that order, -37% and -4.8%.
The like results for `C=CCOc1c(-c2ccccc2)oc2c(ccc3occc32)c1=O` [3-O-ALLYLKARANJONOL] were, in that order, -16.6% and -33%.
The like results for `COc1c(-c2ccccc2)oc2c3c(ccc2c1=O)OCC3` [2',3'-DIHYDROKARANJIN] were, in that order, 9.8% and 6.2%.
For the compound `CC(=O)OC[C@H]1O[C@@H](Oc2c(-c3ccccc3)oc3c(ccc4occc43)c2=O)[C@H](OC(C)=O)[C@@H](OC(C)=O)[C@@H]1OC(C)=O` [3-OTETRAACETYLGLUCOPYRANOSYLKARANJONOL], the Activity in the test with Rattus norvegicus [1] was determined as 0.5%; in the test on Rattus norvegicus [2] it was 9.7%.
`O=c1c(O)c(-c2ccccc2)oc2c3c(ccc12)OCC3` [2',3'-DIHYDROKARANJONOL]: the Activity with Rattus norvegicus [1] was found to be 5.3%; in the test on Rattus norvegicus [2] it was 7%.
For `COc1c(-c2ccccc2)oc2c(ccc3occc32)c1=O` [KARANJIN], the figures for the Activity in the test on Rattus norvegicus [1] and in the test on Rattus norvegicus [2] were -42.6% and -30.8%, respectively.
For `O=c1c(O)c(-c2ccccc2)oc2c1ccc1occc12` [KARANJONOL] the same measures were -39% and -37.2%.
For `O=C(COc1c(-c2ccccc2)oc2c(ccc3occc32)c1=O)c1ccccc1` [3-O-(2-OXO-2-PHENYL-ETHYL)-KARANJONOL] the same measures were 22.9% and 15.4%.
The like results for `CC(C)Oc1c(-c2ccccc2)oc2c(ccc3occc32)c1=O` [3-O-ISOPROPYLKARANJONOL] were, in that order, -15.4% and -26.9%.
